Measurements as given in ChEMBL document CHEMBL1130093, “Synthesis and nicotinic acetylcholine receptor binding properties of exo-2-(2'-fluoro-5'-pyridinyl)-7-azabicyclo-[2.2.1]heptane: a new positron emission tomography ligand for nicotinic receptors” (J Med Chem, 1997).

Molecular target: Neuronal acetylcholine receptor (Rattus norvegicus) (UniProt P04757+P09483+P12389+P12390+P12392+P43144+Q9JLB5+P12391+P43143+P20420+Q05941)
Experiment: Kapp value towards nicotinic acetylcholine receptor was obtained from three to four independent competition binding experiments using [3H]-NCEPB
Type: protein-complex assay

Row | Compound | K app
1 | Fc1ccc([C@H]2CC3CCC2N3)cn1 (stereo partly drawn) | 0.02 nM
2 | Clc1ccc(C2CC3CC[C@H]2N3)cn1 (stereo partly drawn) | 0.024 nM
3 | CN1CCC[C@H]1c1cccnc1 | 6.2 nM
